{"source": "patent US10532066B2", "about": "“Surfactant lipids, compositions thereof, and uses thereof” (National Jewish Health, priority 2007, dated 2020)", "key": {"[1]": {"tested_on": "Respiratory Syncytial Virus (RSV)", "experiment": "Cytopathic effects of RSV upon BEAS2B cells (photomicrography)", "format": "cell-based", "conditions": "multiplicity 3, 72 h, lipid 200 ug/ml", "experimental": "(§1) Monolayers of BEAS2B cells were infected with RSV at a multiplicity of 3 for 72 h. Infections were performed on cells in either the absence or the presence of POPG (200 ug/ml). The cell monolayers were photographed at a magnification of 200×. Controls consisted of no viral challenge in either the presence or absence of POPG as indicated.\n(§2) Monolayers of BEAS2B cells were infected with RSV at a multiplicity of 3 for 72 h. Infections were performed on cells in either the absence (b) or the presence (c,f) of POPG (200 ug/ml) and POPC (200 ug/ml) as indicated. Cells were photographed at a magnification of 200×. Controls (a,d,e) consisted of cell layers either not exposed to virus or exposed to POPG, and POPC in the absence of virus as indicated.\nMonolayers of BEAS2B cells were infected with RSV at a multiplicity of 0.5-1, in either the presence or absence of 200 ug/ml POPG, or 200 ug/ml POPC, as indicated.\nMonolayers of BEAS2B cells were either uninfected (CONL) or challenged with RSV at a multiplicity of 0.5/cell (RSV). Where indicated in the FIG. 44, RSV challenged cells were also treated with POPC (200 ug/ml) or POPG (200 ug/ml) liposomes; or POPG nanodiscs (nanoPOPG) at concentrations ranging from 100-300 ug/ml. Selected panels and fields are also shown at 400× magnification in FIG. 45.\nWhere indicated in FIG. 46, RSV challenged cells were also treated with nanodisc forms of dipalmitoyl-phosphatidylcholine (nanoDPPC), palmitoyl-oleoyl-phosphatidylcholine (nanoPOPC), or dioleoyl-phosphatidylcholine (nanoDOPC), dipalmitoyl-phosphatidylglycerol (nanoDPPG), dimyristoyl-phosphatidylglycerol (nanoDMPG), or dioleoyl-phosphatidylglycerol (nanoDOPG). At 72 h after infection, the cultures were examined by photomicrography at a magnification of 200×."}, "[2]": {"tested_on": "Respiratory Syncytial Virus (RSV)", "experiment": "RSV-induced cytokine production in NHBE cells", "format": "cell-based", "conditions": "RSV multiplicity 3, 48 h, lipid 200 ug/ml"}, "[3]": {"tested_on": "Respiratory Syncytial Virus (RSV)", "experiment": "RSV-induced cytokine production in BEAS2B cells", "format": "cell-based", "conditions": "RSV multiplicity 3, 48 h, lipid 200 ug/ml"}, "[4]": {"tested_on": "RSV", "experiment": "RSV plaque progression in Hep2 monolayers, lipid in agar overlay", "format": "cell-based, Respiratory Syncytial Virus (RSV)", "conditions": "lipid in agar overlay 5 hours after virus, POPG 200-500 ug/ml, POPC 500 ug/ml, 5 days", "experimental": "Monolayers of Hep2 cells were subjected to RSV infection at levels that produce ca 100 plaques per well in quantitative plaque assays. The virus was incubated with the cells for 5 hours prior to agar overlay. The agar overlays contained either no additions, or POPG (200-500 ug/ml) or POPC (500 ug/ml).\nThe effects of POPG upon plaque formation as shown in Panel a of FIG. 39 were quantified in 3 independent experiments and are presented in this figure. The left panel of FIG. 40 provides the numbers of definite, and minute indefinite plaques formed in the absence and presence of POPG (200-500 ug/ml) as indicated. The right panel of FIG. 40 provides the numbers of definite plaques observed in the absence and presence of either POPG or POPC (200-500 ug/ml) as indicated."}, "[5]": {"tested_on": "MAPK, IkBα and MKP-1 in differentiated U937 cells", "experiment": "Western blot of LPS induced MAPK and IkBα phosphorylation and MKP-1 expression", "format": "cell-based, human", "conditions": "LPS 10 ng/ml, liposomes 200 μg/ml", "experimental": "FIG. 4. POPG inhibits LPS induced MAPK and IkBα phosphorylation and MKP-1 expression. POPG liposomes (200 μg/ml) were added to monolayer cultures of differentiated U937 cells that received either no treatment or 10 ng/ml LPS. After incubating for the indicated time, cells were lysed using lysis buffer containing detergent, protease inhibitors and phosphatase inhibitors. Aliquots with 15 μg of protein from lysates were separated by SDS-PAGE and transferred onto nitrocellulose membranes. The amount of phosphorylation was detected using phospho-specific antibodies to p38MAPK, p42/p44 ERK, p46-p54 INK and phosphorylated IkBα. To determine equal loading of proteins between samples, the membranes were probed with rabbit polyclonal p46 INK, p42/p44 ERK, p38MAPK and IkBα antibodies. The expression of MKP-1 was detected with a polyclonal MKP-1 antibody.\nFIG. 5. Quantification of POPG inhibition of LPS induced signaling. Western blot analysis as described in FIG. 4 was performed three or four times on separate samples and the intensity of phospho-p38, phospho-IkBα, phosphoERK, phospho JNK, phospho IkBα, total IkBα and MKP-1 was calculated using NIH Image J1.34 software.\nFIG. 6. Molecular specificity in POPG action. Liposomes composed of POPC, DPPG or POPG were added to monolayer cultures of differentiated U937 cells that received either no treatment or 10 ng/ml LPS, as indicated. After 30 or 60 min cells were lysed and 15 μg of cellular protein from cultures was separated by SDS-PAGE and transferred onto nitrocellulose membranes. Phosphorylated and nonphosphorylated proteins were detected as described in FIG. 4.\nFIG. 7. Comparative quantification of lipid dependent antagonism of LPS signaling. Western blot analysis was performed as described in FIG. 6 in three independent experiments. The intensity of the phosphorylated (p38, ERK, JNK and IkBα) and nonphosphorylated (total IkBα and MKP-1) proteins of interest was measured using NIH Image 0.1.34 software. Significance—*p<0.05, ** p<0.01.\nMonolayers of unstimulated or stimulated macrophages were lysed on ice with 250 μl of ice-cold lysis buffer [50 mM Tris.HCl, pH 8.0, containing 137 mM NaCl, 10% (vol/vol) glycerol, 1% (vol/vol) Nonidet P-40, 1 mM NaF, 10 μg/ml leupeptin, 10 μg/ml aprotinin, 2 mM Na3VO4, and 1 mM phenylmethylsulfonyl fluoride (29). Insoluble nuclear material was pelleted by centrifugation at 14,000×g for 10 min at 4° C. and the supernatants were collected. 15 μg of protein from lysates was separated by SDS-PAGE and transferred onto nitrocellulose membranes (30). The blots were then washed in Tris-Tween-buffered saline [TTBS, 20 mM Tris-HCl buffer, pH 7.6, containing 137 mM NaCl and 0.05% (vol/vol) Tween 20], blocked with 5% (wt/vol) nonfat dry milk for 1 hour, and probed according to the method described by Towbin et. al. (30) with phospho-specific antibodies to p46-p54 JNK, p42/p44 ERK, and p38MAPK, or IkBα or with a polyclonal MKP-1 or IkBα antibodies in 5% (wt/vol) BSA dissolved in TTBS. With the use of horseradish peroxidase-conjugated secondary anti-rabbit or anti-mouse antibody, bound antibodies were detected by enhanced chemiluminescence (ECL plus, Amersham Biosciences, Piscataway, N.J.). To determine loading of proteins between samples, the membranes were probed with rabbit polyclonal p46 JNK, p42/p44 ERK, and p38MAPK antibodies."}, "[6]": {"tested_on": "Respiratory Syncytial Virus (RSV)", "experiment": "Cytopathic effects of RSV upon NHBE cells (photomicrography)", "format": "cell-based", "conditions": "multiplicity 3, 72 h, lipid 200 ug/ml", "experimental": "as §1, with “NHBE” for “BEAS2B”\nas §2, with “NHBE” for “BEAS2B”\nMonolayers of normal human bronchial epithelial cells were infected with RSV at a multiplicity of 0.5-1, in either the presence or absence of 200 ug/ml POPG, or 200 ug/ml POPC, as indicated."}}, "data": [{"smiles": "CCCCCCCC/C=C\\CCCCCCCC(=O)O[C@H](COC(=O)CCCCCCCCCCCCCCC)COP(=O)([O-])OCC[N+](C)(C)C", "note": "[POPC, palmitoyl-oleoyl-phosphatidylcholine, reference compound]", "values": [{"measurement": "cytopathic effects of RSV", "setting": "[1]", "value": "not"}, {"measurement": "IL-6 production", "setting": "[2]", "value": "not"}, {"measurement": "IL-6 production", "setting": "[3]", "value": "not"}, {"measurement": "progression of RSV infection (plaques)", "setting": "[4]", "value": "bullseye plaques"}, {"measurement": "LPS-induced MKP-1 expression", "setting": "[5]", "value": "neither POPC nor DPPG exerted a significant effect"}, {"measurement": "LPS-induced phosphorylation of p38, ERK, JNK and IkBα", "setting": "[5]; 15-60 min", "value": "neither POPC nor DPPG exerted a significant effect"}, {"measurement": "cytopathic effects of RSV", "setting": "[6]", "value": "not"}]}]}
